Measured values published in ChEMBL document CHEMBL1201862, “PubChem BioAssay data set” (2004).
Active and inactive are the calls of the source. Rule as the data show it, for most assays here: actives have a measured EC50 and inactives only a lower limit.

What was measured:
Leucine aminopeptidase = target: T1, Leucine aminopeptidase (Plasmodium falciparum 3D7, UniProt Q8IL11); assay: P. falciparum M17LAP inhibitors, primary screen, biochemical, fluorogenic H-Leu-NHMec substrate, 1536-well (AID 1619); type: functional
T1 sequence (Q8IL11 whole entry): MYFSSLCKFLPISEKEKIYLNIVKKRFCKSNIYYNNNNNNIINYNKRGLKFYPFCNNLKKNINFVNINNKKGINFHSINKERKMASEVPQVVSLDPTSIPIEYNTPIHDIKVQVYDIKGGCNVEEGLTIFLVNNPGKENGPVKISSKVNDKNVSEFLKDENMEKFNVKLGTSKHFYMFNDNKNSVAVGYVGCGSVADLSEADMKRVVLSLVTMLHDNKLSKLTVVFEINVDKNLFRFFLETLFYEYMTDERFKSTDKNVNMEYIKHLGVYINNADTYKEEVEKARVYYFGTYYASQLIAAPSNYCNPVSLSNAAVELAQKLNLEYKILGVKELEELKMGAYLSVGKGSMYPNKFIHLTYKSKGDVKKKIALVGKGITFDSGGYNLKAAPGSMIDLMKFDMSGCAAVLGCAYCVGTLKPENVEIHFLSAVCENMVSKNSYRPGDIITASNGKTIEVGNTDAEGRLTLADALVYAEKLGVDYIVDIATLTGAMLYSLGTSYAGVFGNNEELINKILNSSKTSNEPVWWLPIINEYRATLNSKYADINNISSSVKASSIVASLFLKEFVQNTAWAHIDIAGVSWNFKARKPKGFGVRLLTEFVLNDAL

[1] = target: FAD-linked sulfhydryl oxidase ALR (Homo sapiens, UniProt P55789); assay: ALR-catalysed DTT oxidation blockers – biochemical, H2O2 detection, luminescence, cherry-pick, dose response (AID 493248)
FAD-linked sulfhydryl oxidase ALR, sequence (P55789 whole entry): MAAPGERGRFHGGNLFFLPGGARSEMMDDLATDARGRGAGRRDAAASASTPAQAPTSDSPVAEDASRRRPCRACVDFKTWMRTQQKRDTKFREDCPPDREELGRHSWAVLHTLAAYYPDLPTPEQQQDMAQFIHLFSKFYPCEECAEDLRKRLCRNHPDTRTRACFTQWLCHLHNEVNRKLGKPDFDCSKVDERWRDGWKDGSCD

[2] = target: Luciferin 4-monooxygenase (Photinus pyralis, UniProt P08659); assay: inhibition of purified Photinus pyralis luciferase – biochemical, luminescence, dose response (AID 1891)
Luciferin 4-monooxygenase, sequence (P08659 whole entry): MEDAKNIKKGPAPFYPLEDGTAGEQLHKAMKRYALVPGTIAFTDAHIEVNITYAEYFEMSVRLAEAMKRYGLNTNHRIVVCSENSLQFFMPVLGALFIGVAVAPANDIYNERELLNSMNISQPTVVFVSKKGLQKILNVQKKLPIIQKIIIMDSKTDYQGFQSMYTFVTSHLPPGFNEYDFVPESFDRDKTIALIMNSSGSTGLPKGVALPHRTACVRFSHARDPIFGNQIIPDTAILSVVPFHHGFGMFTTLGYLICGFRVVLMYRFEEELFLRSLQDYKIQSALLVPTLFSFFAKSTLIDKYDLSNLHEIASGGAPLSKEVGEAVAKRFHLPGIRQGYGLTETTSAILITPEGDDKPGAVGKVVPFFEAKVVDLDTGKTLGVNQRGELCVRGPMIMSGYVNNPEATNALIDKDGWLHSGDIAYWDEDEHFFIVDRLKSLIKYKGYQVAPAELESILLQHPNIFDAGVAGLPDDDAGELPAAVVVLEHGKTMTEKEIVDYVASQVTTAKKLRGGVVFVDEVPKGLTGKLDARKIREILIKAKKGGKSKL

[3] = Luminescence Cell-Based Dose Confirmation HTS to Identify Inhibitors of Platelet Dense Granule Release. [Related pubchem assays: 1663 (Primary HTS), 1678 (Summary of Project)]; type: functional
BJ [4] = assay: BJ-TERT fibroblast viability loss – cell-based, RAS-independent, luminescence, dose response (AID 1933); type: functional; details: Homo sapiens
BJ [5] = assay: BJ-TERT-LT-ST fibroblast viability loss – cell-based, RAS-independent, luminescence, dose response (AID 1935); type: functional; details: Homo sapiens;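 also: BJ fibroblasts immortalized with TERT plus LT and ST oncogenes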
BJ [6] = assay: cells; type: functional, cell-based; details: Homo sapiens
[7] = DRD fibroblast viability loss – cell-based, non-viral oncogenic, luminescence, dose response (AID 1934); type: functional; details: Homo sapiens
Genome polyprotein = Genome polyprotein (dengue virus type 2, UniProt P29990); assay: flavivirus cap methylation enzyme inhibition – biochemical, confirmation dose response, primary screen (AID 588689); type: functional
Genome polyprotein, sequence (P29990 2492-3391 limits assumed): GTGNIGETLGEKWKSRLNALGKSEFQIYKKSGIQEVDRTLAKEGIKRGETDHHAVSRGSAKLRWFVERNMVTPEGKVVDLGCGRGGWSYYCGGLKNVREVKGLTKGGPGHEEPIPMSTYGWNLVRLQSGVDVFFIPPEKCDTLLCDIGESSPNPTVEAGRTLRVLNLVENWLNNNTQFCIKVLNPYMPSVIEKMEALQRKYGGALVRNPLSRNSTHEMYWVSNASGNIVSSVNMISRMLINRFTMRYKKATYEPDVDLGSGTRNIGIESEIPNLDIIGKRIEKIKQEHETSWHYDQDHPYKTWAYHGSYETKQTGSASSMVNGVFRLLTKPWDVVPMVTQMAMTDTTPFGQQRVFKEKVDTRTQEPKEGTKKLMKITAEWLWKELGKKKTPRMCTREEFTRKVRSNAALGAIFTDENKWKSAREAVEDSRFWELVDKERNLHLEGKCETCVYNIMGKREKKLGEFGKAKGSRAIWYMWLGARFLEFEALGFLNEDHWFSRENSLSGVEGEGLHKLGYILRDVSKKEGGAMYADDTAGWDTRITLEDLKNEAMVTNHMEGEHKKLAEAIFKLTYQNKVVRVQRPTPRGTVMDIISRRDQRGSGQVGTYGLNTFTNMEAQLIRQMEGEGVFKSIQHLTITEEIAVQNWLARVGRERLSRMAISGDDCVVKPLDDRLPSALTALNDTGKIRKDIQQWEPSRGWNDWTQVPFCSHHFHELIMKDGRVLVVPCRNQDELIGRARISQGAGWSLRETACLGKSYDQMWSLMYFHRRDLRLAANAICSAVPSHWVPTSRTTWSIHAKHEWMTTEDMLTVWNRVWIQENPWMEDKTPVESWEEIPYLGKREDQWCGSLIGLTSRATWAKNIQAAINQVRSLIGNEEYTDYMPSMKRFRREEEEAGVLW

Streptococcus = assay: GAS UMAA2166 growth inhibition – luminescence, BacTiterGlo, counter-screen for streptokinase expression inhibitor project, dose response (AID 1915); type: functional, organism-based;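 also: potency for reduction of bacterial viability or growth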
[8] = target: T2, Zinc finger protein mex-5 (Caenorhabditis elegans, UniProt Q9XUB2); assay: potency of MEX-5 RNA-binding blockers – biochemical, C. elegans, fluorescence polarization, dose response (AID 1960)
T2 sequence (Q9XUB2 whole entry): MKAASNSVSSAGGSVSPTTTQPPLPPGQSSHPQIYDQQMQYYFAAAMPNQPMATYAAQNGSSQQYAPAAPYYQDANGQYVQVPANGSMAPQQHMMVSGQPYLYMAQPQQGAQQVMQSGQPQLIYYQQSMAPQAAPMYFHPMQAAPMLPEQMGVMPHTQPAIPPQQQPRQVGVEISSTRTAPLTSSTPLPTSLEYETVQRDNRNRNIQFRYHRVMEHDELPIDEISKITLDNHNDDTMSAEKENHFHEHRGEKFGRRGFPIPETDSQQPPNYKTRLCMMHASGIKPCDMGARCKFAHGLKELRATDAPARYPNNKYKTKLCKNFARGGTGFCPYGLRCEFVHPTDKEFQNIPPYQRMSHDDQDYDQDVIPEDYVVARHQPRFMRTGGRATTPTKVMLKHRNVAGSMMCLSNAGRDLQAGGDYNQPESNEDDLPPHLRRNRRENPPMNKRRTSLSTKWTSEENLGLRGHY

Streptokinase A = target: T3, Streptokinase A (Streptococcus pyogenes serotype M1, UniProt P10520); assay: viability-normalized secreted streptokinase activity reduction – plasminogen activation absorbance, OD405, dose response (AID 1914); type: functional, Streptococcus pyogenes M1 GAS;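 also: secreted streptokinase activity via plasminogen activation per viability signal from cell pellet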
T3 sequence (P10520 whole entry): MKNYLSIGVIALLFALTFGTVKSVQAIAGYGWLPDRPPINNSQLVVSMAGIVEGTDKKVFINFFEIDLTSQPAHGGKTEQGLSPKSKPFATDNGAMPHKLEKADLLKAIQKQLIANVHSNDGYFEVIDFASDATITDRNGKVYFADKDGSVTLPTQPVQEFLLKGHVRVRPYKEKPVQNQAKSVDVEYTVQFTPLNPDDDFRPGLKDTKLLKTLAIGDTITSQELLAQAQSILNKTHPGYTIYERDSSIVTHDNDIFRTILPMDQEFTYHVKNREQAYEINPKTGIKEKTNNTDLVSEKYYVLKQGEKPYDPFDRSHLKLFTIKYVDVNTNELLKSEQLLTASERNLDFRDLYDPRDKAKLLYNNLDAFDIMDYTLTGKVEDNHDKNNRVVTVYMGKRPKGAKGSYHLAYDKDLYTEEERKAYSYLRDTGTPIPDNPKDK

[9] = target: T4, RNA-binding protein pos-1 (Caenorhabditis elegans, UniProt G5EF15); assay: disruptors of C. elegans POS-1 RNA interaction – biochemical, fluorescence polarization, dose response (AID 1964);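 also: purified POS-1 fused to maltose binding protein made in E. coli; potency of compounds blocking POS-1 binding to fluorescent RNA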
T4 sequence (G5EF15 whole entry): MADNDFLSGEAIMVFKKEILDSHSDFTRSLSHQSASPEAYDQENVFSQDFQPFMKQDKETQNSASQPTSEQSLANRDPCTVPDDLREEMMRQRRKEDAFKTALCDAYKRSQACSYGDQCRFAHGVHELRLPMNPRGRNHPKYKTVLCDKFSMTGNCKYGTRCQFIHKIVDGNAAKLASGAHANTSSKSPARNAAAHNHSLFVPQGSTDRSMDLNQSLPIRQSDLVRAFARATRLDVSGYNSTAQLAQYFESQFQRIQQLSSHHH

[10] = tested on: Streptococcus sp. 'group A'; assay: Streptococcus pyogenes SK(-)GAS viability under kanamycin – luminescence, BacTiterGlo, confirmation, counter-screen for streptokinase expression inhibitor project, dose response (AID 1900); type: functional, organism-based
[11] = target: T5, High affinity choline transporter 1 (Homo sapiens, UniProt Q9GZV3); assay: human choline transporter blockers, potency – cell-based, 5-point CRC, membrane potential dye, dose response (AID 504840); type: functional
T5 sequence (Q9GZV3 whole entry): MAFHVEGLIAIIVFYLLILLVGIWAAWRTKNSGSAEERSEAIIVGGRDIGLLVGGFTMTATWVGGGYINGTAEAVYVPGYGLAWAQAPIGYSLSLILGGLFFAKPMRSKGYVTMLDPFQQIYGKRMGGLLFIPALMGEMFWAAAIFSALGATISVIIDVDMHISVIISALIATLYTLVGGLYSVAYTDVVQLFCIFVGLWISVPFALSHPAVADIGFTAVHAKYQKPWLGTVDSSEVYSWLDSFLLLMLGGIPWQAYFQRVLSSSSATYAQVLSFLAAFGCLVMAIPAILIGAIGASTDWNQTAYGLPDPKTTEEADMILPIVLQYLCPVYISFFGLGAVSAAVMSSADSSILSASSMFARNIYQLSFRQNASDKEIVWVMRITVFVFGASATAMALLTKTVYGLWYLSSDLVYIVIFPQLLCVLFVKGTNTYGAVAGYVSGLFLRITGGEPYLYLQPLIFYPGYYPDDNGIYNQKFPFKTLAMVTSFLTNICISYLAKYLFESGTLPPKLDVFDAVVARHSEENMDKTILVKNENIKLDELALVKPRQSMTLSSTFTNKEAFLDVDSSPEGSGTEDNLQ

Protein skinhead-1 = target: T6, Protein skinhead-1 (Caenorhabditis elegans, UniProt P34707); type: functional
T6 sequence (P34707 whole entry): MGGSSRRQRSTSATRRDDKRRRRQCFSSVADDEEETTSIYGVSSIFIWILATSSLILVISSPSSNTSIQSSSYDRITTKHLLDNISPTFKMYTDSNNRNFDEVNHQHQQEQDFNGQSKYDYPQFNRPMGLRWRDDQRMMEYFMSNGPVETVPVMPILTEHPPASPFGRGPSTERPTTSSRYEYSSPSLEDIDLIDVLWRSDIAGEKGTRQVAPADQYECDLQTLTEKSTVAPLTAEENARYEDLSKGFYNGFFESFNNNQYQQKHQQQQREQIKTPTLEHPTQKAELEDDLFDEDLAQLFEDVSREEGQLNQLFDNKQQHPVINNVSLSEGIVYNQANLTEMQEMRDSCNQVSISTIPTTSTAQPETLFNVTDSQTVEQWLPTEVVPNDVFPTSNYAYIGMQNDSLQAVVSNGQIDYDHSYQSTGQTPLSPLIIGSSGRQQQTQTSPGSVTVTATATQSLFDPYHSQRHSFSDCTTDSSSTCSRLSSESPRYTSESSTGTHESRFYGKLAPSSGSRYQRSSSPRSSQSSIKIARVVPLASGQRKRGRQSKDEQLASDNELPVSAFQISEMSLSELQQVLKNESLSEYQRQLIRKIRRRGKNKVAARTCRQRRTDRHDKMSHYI

Cytochrome P450 2D6 = Cytochrome P450 2D6 (Homo sapiens, UniProt P10635);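 also: CYP2D6 member of a cytochrome P450 panel assay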
Cytochrome P450 2D6, sequence (P10635 whole entry): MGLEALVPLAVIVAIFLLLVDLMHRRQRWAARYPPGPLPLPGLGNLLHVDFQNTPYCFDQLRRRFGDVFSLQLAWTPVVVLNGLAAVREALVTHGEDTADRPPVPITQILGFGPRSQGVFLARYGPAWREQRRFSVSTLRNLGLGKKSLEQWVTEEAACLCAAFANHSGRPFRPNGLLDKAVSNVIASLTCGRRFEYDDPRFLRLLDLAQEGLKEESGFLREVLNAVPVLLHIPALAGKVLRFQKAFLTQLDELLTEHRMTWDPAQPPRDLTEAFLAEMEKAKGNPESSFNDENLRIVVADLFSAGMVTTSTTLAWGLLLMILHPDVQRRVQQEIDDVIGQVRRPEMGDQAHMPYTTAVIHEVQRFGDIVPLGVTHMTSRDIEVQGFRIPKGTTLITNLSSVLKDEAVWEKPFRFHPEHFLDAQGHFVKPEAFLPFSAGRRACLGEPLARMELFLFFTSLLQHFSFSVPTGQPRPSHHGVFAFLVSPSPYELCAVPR

COC(=O)c1ccccc1NC(=O)CN1C(=O)c2ccccc2S1(=O)=O
IC50 (Leucine aminopeptidase): 18.1 µM (active)

COc1ccc(-c2cc(-c3ccc(N)cc3)nc(N)c2C#N)cc1OC
AC50 [1]: 0.794 µM (active)

COc1ccc(S(=O)(=O)N2CCN=C2SCc2cccnc2)cc1
AC50 [1]: 0.243 µM (active)

CCOC(=O)Cc1sc(N)nc1C
EC50 [2]: > 112 µM (not active) | EC50 [3]: > 112 µM (not active)

COc1cc(C(=O)NCC(=O)N2CCN(S(=O)(=O)c3cc(C)ccc3C)CC2)cc(OC)c1OC
EC50 (BJ [4]): 13.4 µM (active) | EC50 (BJ [5]): 16.3 µM (active) | EC50 (BJ [6]): 31.8 µM (active) | EC50 [7]: 14.5 µM (active)

COc1ccccc1C(=O)N1CCN=C1SCc1cccnc1
AC50 [1]: 0.009 µM (active)

CSC1=NSC2=NC(=O)/C(=C\c3c[nH]c4ccccc34)C(=N)N12
IC50 (Genome polyprotein): > 100 µM (active) | EC50 (Streptococcus): > 150 µM (not active) | EC50 [8]: 17.9 µM (inconclusive) | EC50 (Streptokinase A): > 150 µM (not active) | EC50 [9]: > 300 µM (inconclusive) | EC50 [10]: 1.95 µM (active)

CCCCCc1nc2sc3c(c2c(=O)n1N)CCC3
EC50 [2]: > 112 µM (not active) | EC50 [3]: > 112 µM (not active)

CCOc1ccc(S(=O)(=O)NCCC(=O)N2CCCN(C)CC2)cc1
EC50 [2]: > 112 µM (not active) | EC50 [3]: > 112 µM (not active)

Cc1ccc(NC(=O)CSc2nnc(NC(=O)CN3CCOCC3)s2)cc1
IC50 (Leucine aminopeptidase): 9.15 µM (active)

CC(=O)Nc1ccc(C(=O)N(C)c2ccccc2)cc1
EC50 [2]: > 112 µM (not active) | EC50 [3]: > 112 µM (not active)

CCc1cc2c(N3CCN(c4nnc(CC)s4)CC3)ncnc2s1
IC50 [11]: 3.63 µM (active)

Cc1cccc(C(=O)Nc2nnc(-c3ccncc3)o2)c1
AC50 [1]: 2.35 µM (active)

CCOC(=O)N1CCN(C(=O)CCCN2C(=O)CSc3nc(C)cc(C)c32)CC1
EC50 [2]: > 112 µM (not active) | EC50 [3]: > 112 µM (not active)

CCOc1cccc2cc(C(=O)NCc3cccnc3)c(=O)oc12
EC50 [2]: > 112 µM (not active) | EC50 [3]: > 112 µM (not active)

CCOc1ccc(/C=C/c2nc(O)nc(O)c2[N+](=O)[O-])cc1
IC50 (Genome polyprotein): 45.9 µM (active)

Cc1ccc(N2NC(=O)/C(=C/c3ccc(-c4ccc(Cl)c(C(=O)O)c4)o3)C2=O)cc1C
IC50 (Genome polyprotein): 79.1 µM (active)

CCCc1cc(C(=O)NN=C(S)NC(C)c2ccccc2)cs1 (stereo unspecified)
IC50 [11]: 12.6 µM (active)

Cc1cccc(-c2cnn(-c3cccc([N+](=O)[O-])c3)c2N)c1
AC50 [1]: 0.287 µM (active)

COc1ccc(/C=C2/C(=O)NC(=O)N(c3ccccc3)C2=O)cc1CN1C(=O)c2ccccc2C1=O
IC50 (Genome polyprotein): 73.9 µM (active)

Cc1ccc(C(=O)Nc2ncc([N+](=O)[O-])s2)cc1
IC50 (Protein skinhead-1): > 100 µM (inactive) | IC50 [11]: 10.5 µM (active)

Nc1nn(-c2ccccc2)c(N)c1N=Nc1cccc(F)c1
EC50 (BJ [4]): 3.92 µM (active) | EC50 (BJ [5]): 36.7 µM (inconclusive) | EC50 (BJ [6]): 124 µM (active) | EC50 [7]: 1.94 µM (active)

CCN(CC)c1ccc2c(c1)OC(N)=C(C#N)C2c1cccnc1 (stereo unspecified)
AC50 (Cytochrome P450 2D6): 15.8 µM (inconclusive) | EC50 (BJ [4]): 0.368 µM (inconclusive) | EC50 (BJ [5]): 0.396 µM (inconclusive) | EC50 (BJ [6]): 0.341 µM (inconclusive) | EC50 [7]: 0.347 µM (active)

O=C(O)CCc1ccc(-c2ccc(Cl)cc2)o1
AC50 [1]: 2.22 µM (active)

Cc1csc(NC(=O)c2ccco2)n1
EC50 [2]: > 112 µM (not active) | EC50 [3]: 20.1 µM (active)

CCN(CC)S(=O)(=O)c1cccc(-c2csc(C)n2)c1
AC50 [1]: 4.41 µM (active)

COc1ccc(C(=O)N(C)C2CCCc3ccccc32)cc1OC1CCN(C(C)C)CC1 (stereo unspecified)
IC50 [11]: 12.6 µM (active)

CC1(C)c2[nH]c3ccccc3c2C[C@@H]2C(=O)N(Cc3ccccc3)C(=O)N21
IC50 [11]: 12.9 µM (active)

O=C(CCNS(=O)(=O)c1ccccc1C(F)(F)F)N1CCN(c2ccccc2O)CC1
AC50 [1]: 5.51 µM (active)

COc1ccc(C(=O)N2CCCCCC2)cc1OC1CCN(C(C)C)CC1
IC50 [11]: 13.9 µM (active)

COc1ccc(/C=N/Nc2nccnc2Cl)c(OC)c1
EC50 [2]: 6.55 µM (active) | EC50 [3]: 2.65 µM (active)

COc1cc(/C=N/c2cccc(C)c2)c(O)c([N+](=O)[O-])c1
IC50 [11]: 13.2 µM (active)
